Results reported in US20260042731A1, “(2,4-DICHLOROPHENOXY)ACETIC ACID ANALOGS” (CORTEVA AGRISCIENCE LLC, priority 2022, published 2026).
Read-outs that look alike come from different tables or passages of the source.

Legend:
[1] = system: Ambrosia artemisiifolia (AMBEL), common ragweed; assay: Postemergence herbicide evaluation, growth of Ambrosia artemisiifolia (AMBEL); assay type: in vivo; conditions: Ambrosia artemisiifolia, post-emergence, percent reduction in plant size vs untreated control, read-out: AVE. AMBEL; for pest or weed control at 280 g/ha: 280 g ae/ha; for pest or weed control at 560 g/ha: 560 g ae/ha
[2] = system: weeds ABUTH, AMATA, AMBEL, CHEAL, ERICA; assay: Postemergence herbicide evaluation, overall average % weed control across ABUTH, AMATA, AMBEL, CHEAL and ERICA; assay type: in vivo; conditions: post-emergence, average over five weeds, read-out: Overall Ave % Weed Control; for pest or weed control at 280 g/ha: 280 g ae/ha; for pest or weed control at 560 g/ha: 560 g ae/ha
[3] = system: glyphosate resistant Conyza canadensis (L.) (ERICA), horseweed; assay: Postemergence herbicide evaluation, growth of Conyza canadensis (ERICA); assay type: in vivo; conditions: Erigeron canadensis, post-emergence, percent reduction in plant size vs untreated control, read-out: Ave. ERICA; for pest or weed control at 280 g/ha: 280 g ae/ha; for pest or weed control at 560 g/ha: 560 g ae/ha
[4] = Volatility of compounds measured by thermogravimetric analysis (TGA); assay type: physicochemical
[5] = system: Amaranthus rudis (AMATA), tall water hemp; assay: Postemergence herbicide evaluation, growth of Amaranthus rudis (AMATA); assay type: in vivo; conditions: Amaranthus tuberculatus, post-emergence, percent reduction in plant size vs untreated control, read-out: Ave. AMATA; for pest or weed control at 280 g/ha: 280 g ae/ha; for pest or weed control at 560 g/ha: 560 g ae/ha
[6] = system: Abutilon theophrasti (ABUTH), velvetleaf; assay: Postemergence herbicide evaluation, growth of Abutilon theophrasti (ABUTH); assay type: in vivo; conditions: Abutilon theophrasti, post-emergence, percent reduction in plant size vs untreated control, read-out: AVE. ABUTH; for pest or weed control at 280 g/ha: 280 g ae/ha; for pest or weed control at 560 g/ha: 560 g ae/ha
[7] = system: Chenopodium album (CHEAL), common lambsquarters; assay: Postemergence herbicide evaluation, growth of Chenopodium album (CHEAL); assay type: in vivo; conditions: Chenopodium album, post-emergence, percent reduction in plant size vs untreated control, read-out: Ave. CHEAL; for pest or weed control at 280 g/ha: 280 g ae/ha; for pest or weed control at 560 g/ha: 560 g ae/ha

Row | Structure (SMILES) | pest or weed control at 280 g/ha ([1]; 168 h, 7 DAA) [%] | pest or weed control at 560 g/ha ([1]; 168 h, 7 DAA) [%] | pest or weed control at 280 g/ha ([1]; 336 h, 14 DAA) [%] | pest or weed control at 560 g/ha ([1]; 336 h, 14 DAA) [%] | pest or weed control at 280 g/ha ([1]; 504 h, 21 DAA) [%] | pest or weed control at 560 g/ha ([1]; 504 h, 21 DAA) [%] | pest or weed control at 280 g/ha ([2]; 168 h, 7 DAA) [%] | pest or weed control at 560 g/ha ([2]; 168 h, 7 DAA) [%] | pest or weed control at 280 g/ha ([2]; 336 h, 14 DAA) [%] | pest or weed control at 560 g/ha ([2]; 336 h, 14 DAA) [%] | pest or weed control at 280 g/ha ([2]; 504 h, 21 DAA) [%] | pest or weed control at 560 g/ha ([2]; 504 h, 21 DAA) [%] | pest or weed control at 280 g/ha ([3]; 168 h, 7 DAA) [%] | pest or weed control at 560 g/ha ([3]; 168 h, 7 DAA) [%] | pest or weed control at 280 g/ha ([3]; 336 h, 14 DAA) [%] | pest or weed control at 560 g/ha ([3]; 336 h, 14 DAA) [%] | pest or weed control at 280 g/ha ([3]; 504 h, 21 DAA) [%] | pest or weed control at 560 g/ha ([3]; 504 h, 21 DAA) [%] | TGA Data (rate of weight loss, volatility) [4] [µg/min] | pest or weed control at 280 g/ha ([5]; 168 h, 7 DAA) [%] | also measured
1 | C/C(=N\OC(=O)COc1ccc(Cl)cc1Cl)C(=O)c1ccccc1 [Compound A22] | 77.5 | 82.5 | 67.5 | 92.5 | 100 | 100 | 74.5 | 79.5 | 87 | 96.5 | 89.7 | 96.8 | 87.5 | 77.5 | 100 | 100 | 99 | 99.5 | 0.42 | 70 | pest or weed control at 560 g/ha ([5]; 168 h, 7 DAA): 87.5%; pest or weed control at 280 g/ha ([5]; 336 h, 14 DAA): 87.5%; pest or weed control at 560 g/ha ([5]; 336 h, 14 DAA): 92.5%; pest or weed control at 280 g/ha ([5]; 504 h, 21 DAA): 65%; pest or weed control at 560 g/ha ([5]; 504 h, 21 DAA): 87.5%; pest or weed control at 280 g/ha ([6]; 168 h, 7 DAA): 62.5%; pest or weed control at 560 g/ha ([6]; 168 h, 7 DAA): 70%; pest or weed control at 280 g/ha ([6]; 336 h, 14 DAA): 82.5%; pest or weed control at 560 g/ha ([6]; 336 h, 14 DAA): 98.5%; pest or weed control at 280 g/ha ([6]; 504 h, 21 DAA): 97%; pest or weed control at 560 g/ha ([6]; 504 h, 21 DAA): 99.5%; pest or weed control at 280 g/ha ([7]; 168 h, 7 DAA): 75%; pest or weed control at 560 g/ha ([7]; 168 h, 7 DAA): 80%; pest or weed control at 280 g/ha ([7]; 336 h, 14 DAA): 97.5%; pest or weed control at 560 g/ha ([7]; 336 h, 14 DAA): 99%; pest or weed control at 280 g/ha ([7]; 504 h, 21 DAA): 87.5%; pest or weed control at 560 g/ha ([7]; 504 h, 21 DAA): 97.5%
2 | O=C(COc1cc(Cl)cc(Cl)c1)OCCCOC(=O)COc1ccc(Cl)cc1Cl [Compound B7] | 62.5 | 72.5 | 57.5 | 67.5 | 77.5 | 100 | 61 | 68 | 65.3 | 74.1 | 70.3 | 76.2 | 82.5 | 85 | 70 | 91.5 | 99 | 98.5 | 0.03572 | 57.5 | pest or weed control at 560 g/ha ([5]; 168 h, 7 DAA): 67.5%; pest or weed control at 280 g/ha ([5]; 336 h, 14 DAA): 85%; pest or weed control at 560 g/ha ([5]; 336 h, 14 DAA): 85%; pest or weed control at 280 g/ha ([5]; 504 h, 21 DAA): 70%; pest or weed control at 560 g/ha ([5]; 504 h, 21 DAA): 52.5%; pest or weed control at 280 g/ha ([6]; 168 h, 7 DAA): 20%; pest or weed control at 560 g/ha ([6]; 168 h, 7 DAA): 37.5%; pest or weed control at 280 g/ha ([6]; 336 h, 14 DAA): 17.5%; pest or weed control at 560 g/ha ([6]; 336 h, 14 DAA): 30%; pest or weed control at 280 g/ha ([6]; 504 h, 21 DAA): 15%; pest or weed control at 560 g/ha ([6]; 504 h, 21 DAA): 42.5%; pest or weed control at 280 g/ha ([7]; 168 h, 7 DAA): 82.5%; pest or weed control at 560 g/ha ([7]; 168 h, 7 DAA): 77.5%; pest or weed control at 280 g/ha ([7]; 336 h, 14 DAA): 96.5%; pest or weed control at 560 g/ha ([7]; 336 h, 14 DAA): 96.5%; pest or weed control at 280 g/ha ([7]; 504 h, 21 DAA): 90%; pest or weed control at 560 g/ha ([7]; 504 h, 21 DAA): 87.5%
